From patent publication EP0923292B1, “IMPROVED METHOD FOR SYSTEMIC ADMINISTRATION OF 2,4-DIENOIC ACID-TYPE INSECTICIDES TO TERRESTRIAL MAMMALS” (priority 1996, dated 1998)

What was measured:
[1] = tested on: adult cat fleas C. felis; test: Flea ovicidal activity in vitro: artificial feeding system with blood drawn from treated dogs (Example 3); details: fed to fleas
Text: For the in vitro tests, an artificial feeding system with cages for adult cat fleas C. felis was used as described by Wade, S.E., et al., J. Med. Ent. 25(3): 186-190 (May 1988). Inside each cage were placed 100 one-week-old, unfed adult C. fells. Each cage included a container for treated blood separated from the fleas by a PARAFILM® membrane, and a compartment containing thin strips of paper to support loosely arranged clean dog hair and to provide a foothold for the fleas as they fed on the blood through the membrane.
Fifteen healthy male beagle dogs, one year of age, with weights ranging from 10.29 kg to 13.87 kg, were divided into three groups of five dogs each. One group was fed an initial bolus of 50 mg/kg of (S)-methoprene, followed by daily feeding a standard maintenance diet containing 0.02% (S)-methoprene. The second group was fed an initial bolus of 25 mg/kg of (S)-methoprene, followed by daily feeding a standard maintenance diet containing 0.01% (S)-methoprene. The third group received the same diet but with no (S)-methoprene, thereby serving as a control. The daily feeding of 0.02% (S)-methoprene in the first group amounted to approximately 3.6 mg/kg, while the daily feeding of 0.01% (S)-methoprene in the second group amounted to approximately 1.8 mg/kg. The (S)-methoprene was administered in a gelatin capsule, the control involved administration of a gelatin capsule containing vegetable oil instead of (S)-methoprene, and the standard diet was a Science Diet Canine Maintenance. The daily feeding of the (S)-methoprene continued for six weeks following the initial bolus.
Seven days after the initial bolus and weekly thereafter for five more weeks except week 4, 50 mL of blood was collected from each dog into a syringe preloaded with 3 mL of a 20% (by weight) aqueous sodium citrate solution. The five 50-mL samples from each treatment group were pooled at each bleeding. Aliquots of 10 mL each from each pool were placed in separate feeding chambers of the artificial flea feeding cages.
Flea eggs were collected from each cage at appropriate intervals. One hundred (100) healthy appearing […] were counted under a dissecting microscope from each cage, divided into two subsamples, and placed in 60 mm x 15 mm plastic petri dishes. The samples were incubated at 78°F and 85% relative humidity for three days, then scored for larval hatch by visual observation through the dissecting microscope. The data from all replicates in each treatment group were combined to yield the mean percent egg hatch, and the percent inhibition of egg hatch was calculated relative to the control.

[2] = tested on: C. felis; test: Systemic flea ovicidal activity upon oral administration to host dogs (Example 2); format: in vivo, C. felis (host: dogs); details: for Percent Inhibition of Flea Egg Hatching: relative to placebo
Text: Nine random-bred, clinically healthy dogs, five male and four female, ranging in weight from 7.5 to 14.9 kg and in age from 7 months to 68 months, and having hair coats ranging from fine to coarse and from 1.0 to 2.5 cm in length, were used. The dogs were assigned to three treatment groups based on weight, one group designated to receive a placebo (gelatin capsules containing no (S)-methoprene), the second group to receive gelatin capsules individually prepared to contain the appropriate quantity of (S)-methoprene such that one capsule would provide 25.0 mg (S)-methoprene per kg of the body weight of a particular dog, and the third group to receive gelatin capsules individually prepared to provide 50.0 mg/kg of body weight per dog. […]
Eleven days before the administration of the first gelatin capsule (i.e., on Day -11), and weekly thereafter through Day 59, each dog was infested with approximately 200 one-to two-week-old, unfed adult C. fells fleas of mixed sex ratio. Each dog was restrained for about one minute while the fleas were released along the dorsum.
[…] Prior to egg collection, the cages in which the dogs were housed and the collection trays were rinsed with isopropyl alcohol, and the water was turned off, feed bowls and resting pads were removed from each cage. Trays covered with a screen made of […] hardware cloth were placed under the cages, and heavy white butcher paper was placed under the hardware cloth. After an interval of 14-16 hours, the paper was swept and the debris and flea eggs thus collected were transferred to a metal pan. The debris was separated from the eggs by sieving, and the eggs were placed in half-pint plastic cartons, then transferred to 10 cm x 10 cm glass plates. Using a dissecting microscope and a fine tipped artist brush, 100 flea eggs were counted from the sweepings of each dog and separated into four replicates of 25 eggs each. The eggs were placed in a 15 mm x 60 mm disposable plastic petri dish and incubated at 79-80°F and 80% relative humidity. Seventy two hours after collection, larvae emergence was determined. Both dead and live larvae were counted to determine the ovicidal effect of the treatment.
The results are listed in Table II below, where each entry represents the percent inhibition of hatching of fleas from the flea eggs relative to the placebo group, and each entry is the average of all replicates and of all three dogs in the particular treatment group.

## COC(C)(C)CCC[C@H](C)C/C=C/C(C)=C/C(=O)OC(C)C [(S)-Methoprene, 1-isopropyl (E,E)-11-methoxy-3,7,11-trimethyl dodecadi-2,4-enoate]
[1]; pooled blood of dogs given initial bolus 25 mg/kg then daily diet 0.01% (S)-methoprene, week 1
  Percent Inhibition of Flea Egg Hatching: 6%
[1]; pooled blood of dogs given initial bolus 25 mg/kg then daily diet 0.01% (S)-methoprene, week 3
  Percent Inhibition of Flea Egg Hatching: 38%
[1]; pooled blood of dogs given initial bolus 25 mg/kg then daily diet 0.01% (S)-methoprene, week 5
  Percent Inhibition of Flea Egg Hatching: 24%
[1]; pooled blood of dogs given initial bolus 25 mg/kg then daily diet 0.01% (S)-methoprene, week 6
  Percent Inhibition of Flea Egg Hatching: 19%
[1]; pooled blood of dogs given initial bolus 50 mg/kg then daily diet 0.02% (S)-methoprene, week 1
  Percent Inhibition of Flea Egg Hatching: 33%
[1]; pooled blood of dogs given initial bolus 50 mg/kg then daily diet 0.02% (S)-methoprene, week 3
  Percent Inhibition of Flea Egg Hatching: 48%
[1]; pooled blood of dogs given initial bolus 50 mg/kg then daily diet 0.02% (S)-methoprene, week 5
  Percent Inhibition of Flea Egg Hatching: 38%
[1]; pooled blood of dogs given initial bolus 50 mg/kg then daily diet 0.02% (S)-methoprene, week 6
  Percent Inhibition of Flea Egg Hatching: 22%
[2]; administered systemically to host dogs at 50 mg/kg and 25 mg/kg
  duration of ovicidal efficacy: two weeks or more
[2]; following a single oral dose of 50 mg/kg to dogs
  time effective in controlling fleas: 14 days
[2]; oral 25 mg/kg once on Day 0 and once on Day 33, 1 day after initial administration
  Percent Inhibition of Flea Egg Hatching: 92.3%
[2]; oral 25 mg/kg once on Day 0 and once on Day 33, 2 days after initial administration
  Percent Inhibition of Flea Egg Hatching: 80.4%
[2]; oral 25 mg/kg once on Day 0 and once on Day 33, 4 days after initial administration
  Percent Inhibition of Flea Egg Hatching: 100.0%
[2]; oral 25 mg/kg once on Day 0 and once on Day 33, 7 days after initial administration
  Percent Inhibition of Flea Egg Hatching: 44.4%
[2]; oral 25 mg/kg once on Day 0 and once on Day 33, 14 days after initial administration
  Percent Inhibition of Flea Egg Hatching: 75.1%
[2]; oral 25 mg/kg once on Day 0 and once on Day 33, 21 days after initial administration
  Percent Inhibition of Flea Egg Hatching: 79.0%
[2]; oral 25 mg/kg once on Day 0 and once on Day 33, 28 days after initial administration
  Percent Inhibition of Flea Egg Hatching: 39.9%
[2]; oral 25 mg/kg once on Day 0 and once on Day 33, 35 days after initial administration
  Percent Inhibition of Flea Egg Hatching: 100.0%
[2]; oral 25 mg/kg once on Day 0 and once on Day 33, 42 days after initial administration
  Percent Inhibition of Flea Egg Hatching: 95.9%
[2]; oral 25 mg/kg once on Day 0 and once on Day 33, 49 days after initial administration
  Percent Inhibition of Flea Egg Hatching: 11.3%
[2]; oral 25 mg/kg once on Day 0 and once on Day 33, 55 days after initial administration
  Percent Inhibition of Flea Egg Hatching: 12.6%
[2]; oral 25 mg/kg once on Day 0 and once on Day 33, 63 days after initial administration
  Percent Inhibition of Flea Egg Hatching: 14.0%
[2]; oral 50 mg/kg once on Day 0 and once on Day 33, 1 day after initial administration
  Percent Inhibition of Flea Egg Hatching: 98.9%
[2]; oral 50 mg/kg once on Day 0 and once on Day 33, 2 days after initial administration
  Percent Inhibition of Flea Egg Hatching: 100.0%
[2]; oral 50 mg/kg once on Day 0 and once on Day 33, 4 days after initial administration
  Percent Inhibition of Flea Egg Hatching: 100.0%
[2]; oral 50 mg/kg once on Day 0 and once on Day 33, 7 days after initial administration
  Percent Inhibition of Flea Egg Hatching: 97.5%
[2]; oral 50 mg/kg once on Day 0 and once on Day 33, 14 days after initial administration
  Percent Inhibition of Flea Egg Hatching: 97.9%
[2]; oral 50 mg/kg once on Day 0 and once on Day 33, 21 days after initial administration
  Percent Inhibition of Flea Egg Hatching: 73.0%
[2]; oral 50 mg/kg once on Day 0 and once on Day 33, 28 days after initial administration
  Percent Inhibition of Flea Egg Hatching: 50.8%
[2]; oral 50 mg/kg once on Day 0 and once on Day 33, 35 days after initial administration
  Percent Inhibition of Flea Egg Hatching: 100.0%
[2]; oral 50 mg/kg once on Day 0 and once on Day 33, 42 days after initial administration
  Percent Inhibition of Flea Egg Hatching: 100.0%
[2]; oral 50 mg/kg once on Day 0 and once on Day 33, 49 days after initial administration
  Percent Inhibition of Flea Egg Hatching: 51.5%
[2]; oral 50 mg/kg once on Day 0 and once on Day 33, 55 days after initial administration
  Percent Inhibition of Flea Egg Hatching: 31.9%
[2]; oral 50 mg/kg once on Day 0 and once on Day 33, 63 days after initial administration
  Percent Inhibition of Flea Egg Hatching: 16.1%
